pIC50: −log10 of the molar value. “And” between values parts separate entries of the source, which are not always exact repeats. Identical values can stand only once.
Legend:
[1] = tested on: ZAP70 in ZAP70+ CLL B cells; experiment: ZAP70 protein expression by indirect immunofluorescence and FACS analysis; type: cell-based, human; conditions: ZAP70+ CLL B cells of one patient, 24 hours at 37° C.
Protocol: Levels of ZAP70 protein expression were measured by indirect immunofluorescence of permeabilized cells with specific anti-ZAP70 antibodies and FACS analysis.

[2] = tested on: ZAP70 in CLL B cells (CD3−, ZAP70+); experiment: Two-color flow cytometry of ZAP70 expression in white blood cells of a ZAP70+ CLL patient: CLL B cells; type: cell-based, human; conditions: 300 nM, 24 hours at 37° C., untreated 85%
Protocol: (§1) The upper right quadrant were normal T-cells (CD3+, ZAP70+) the lower right quadrant were (CD3−, ZAP70+); the upper left quadrant is CD3+, ZAP70−; and the lower left quadrant is CD3−, ZAP70−.
(§2) (right panel). Levels of ZAP70 protein expression were measured by two color indirect immunofluorescence with specific anti-CD3 antibodies conjugated to phycoerytirin and anti-ZAP70 antibodies conjugated to Alexa-488 dye and analyzed by flow cytometry. CD3 is a specific marker of T cells. […] As shown in the untreated cells (left panel), approximately 5% of the cells were normal T-cells (CD3+, ZAP70+, upper right quadrant) and ˜85% of the cells were ZAP70+ CLL B cells (CD3−, ZAP70+, lower right quadrant). […] This is important because B-CLL patients are chronically immunosuppressed by their disease, so avoidance of effects on normal T-cell function performed by ZAP70 is clearly beneficial.
(§3) The samples were than prepared for flow cytometry analysis by a method described in Rassebti et al. supra. […] Levels of ZAP70 protein expression were measured by flow cytometry (FACSCalibur, BD Biosciences) and Flow-Jo software, version 2.7.4 (Tree Star).

[3] = tested on: ZAP70 in normal T-cells (CD3+, ZAP70+); experiment: Two-color flow cytometry of ZAP70 expression in white blood cells of a ZAP70+ CLL patient: normal T-cells; type: cell-based, human; conditions: 300 nM, 24 hours at 37° C., untreated 4.5%
Protocol: as §1, §2, §3

[4] = tested on: ZAP70+ CLL B cells
Excerpt: The % viability is expressed as 100%-% apoptotic cells. […] The % viability is expressed as 100%-% apoptotic cells. […] The % viability is expressed as 100%-% apoptotic cells.
The % viability is expressed as 100%-% apoptotic cells.

[5] = cited from earlier work
[6] = tested on: ZAP70− CLL B cells; experiment: Viability (100%-% apoptotic cells) by DiOC6 and propidium iodide staining; conditions: Homo sapiens, B-cell, 48 h, read-out: average % viability
[7] = Solvent stability of low melt form: slurrying in H2O:EtOH (90:10); type: physicochemical; conditions: slurry in H2O:EtOH (90:10)
Protocol: 17-AAG may be prepared from geldanamycin by reacting with allyamine in dry THF under a nitrogen atmosphere. The crude product may be purified by slurrying in H2O:EtOH (90:10), and the washed crystals obtained have a melting point of 206-212° C. by capillary melting point technique. […] The two 17-AAG products are designated as the low melt form and high melt form.
MP=147-175° C. ^1H NMR and HPLC are consistent with the desired product.

## C=CCNC1=C2CC(C)CC(OC)C(O)C(C)/C=C(\C)C(OC(N)=O)C(OC)/C=C\C=C(/C)C(=O)NC(=CC1=O)C2=O (stereo not drawn) [Compound 17-AAG, 17-allylamino-17-demethoxygeldanamycin]
[1]
  degradation of ZAP70: dose-dependently induced degradation of ZAP70
[2]
  % positive cells (ZAP70) after treatment: 34%
[3]
  % positive cells (ZAP70) after treatment: 4.2%
[4]; 0.1 µM
  average % viability: 45.74+/−3.177%
[4]; 100 nM, 37° C., cells of one ZAP70+ patient
  time to reach 50% cell mortality: approximately 48 hours
[4]; read-out: 50% inhibitory concentration (IC50), cell killing, 48 hours at 37° C., cells of one ZAP70+ patient
  pIC50: ~7.10
[5]; daily 1-hour infusion for 5 days every three weeks
  maximum tolerated dose (MTD): 40 mg/m^2
[5]; human, in vivo
  clearance: 41.0 ± 13.5 L/h
  terminal half-life: 2.5 ± 0.5 h
[5]; read-out: Plasma Cmax, human, in vivo
  Cmax: 1860 nM and 3170 nM
[6]
  viability at 0.1 µM: 93%

## C=CCNC1=C2C[C@@H](C)C[C@H](OC)[C@H](O)[C@@H](C)/C=C(\C)[C@H](OC(N)=O)[C@@H](OC)/C=C\C=C(/C)C(=O)NC(=CC1=O)C2=O [low melt form, 17-allylamino-17-demethoxygeldanamycin]
[7]
  stability of the low melt form (conversion to high melt form): no conversion to the high melt form was observed

Reference: US20080280878A1, “Methods and Compositions for Treating Chronic Lymphocytic Leukemia” (priority 2004, published 2008)
